Experiments:
F508delCFTR [1] = molecular target: T1, F508delCFTR (Homo sapiens, UniProt P13569, DEL508-508); test: Cell Surface Expression-Horse Radish Peroxidase (CSE-HRP) assay, test compound without co-corrector; assay type: cell-based; conditions: for Emax: maximum at any tested concentration, normalized to positive control, without co-corrector; for EC50: test compound without co-corrector;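 as to Emax: percent of on-plate 2 µM positive control corrector response over DMSO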
T1 construct: expressed in transfected cells; host or cells: CFBE41o- human lung-derived epithelial cells (CFBE41o-F508delCFTR-HRP), doxycycline-inducible
Outline: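 Compound without co-corrector was tested at eight 3-fold concentrations, top 20 μM, for 18-24 h at 33° C on doxycycline-induced (0.5 μg/mL, 72 h) CFBE41o- F508delCFTR-HRP cells. After DPBS washes, luminol luminescence gave % activity relative to on-plate positive control minus DMSO; EC50 came from triplicate-plate sigmoidal fitting.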

F508delCFTR [2] = molecular target: T1, F508delCFTR; test: Cell Surface Expression-Horse Radish Peroxidase (CSE-HRP) assay, test compound with co-corrector; assay type: cell-based; conditions: with 2 μM co-corrector; for Maximum % activity (with co-corrector): maximum at any tested concentration, normalized to positive control;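 as to Maximum % activity (with co-corrector): percent of 2 µM positive control corrector over DMSO; co-corrector is that same compound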
Outline: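 Surface-expression read-out: luminol luminescence from an HRP tag in the fourth exofacial loop of F508delCFTR, in doxycycline-induced (0.5 μg/mL, 72 h) CFBE41o- cells. Compound plus 2 μM co-corrector added for 18-24 h at 33° C., 8-point 3-fold series up to 20 μM. EC50 from a sigmoidal fit with variable Hill slope, normalised to positive control, triplicate plates.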

T1 sequence (P13569 with tags, fused parts or gaps DEL508-508): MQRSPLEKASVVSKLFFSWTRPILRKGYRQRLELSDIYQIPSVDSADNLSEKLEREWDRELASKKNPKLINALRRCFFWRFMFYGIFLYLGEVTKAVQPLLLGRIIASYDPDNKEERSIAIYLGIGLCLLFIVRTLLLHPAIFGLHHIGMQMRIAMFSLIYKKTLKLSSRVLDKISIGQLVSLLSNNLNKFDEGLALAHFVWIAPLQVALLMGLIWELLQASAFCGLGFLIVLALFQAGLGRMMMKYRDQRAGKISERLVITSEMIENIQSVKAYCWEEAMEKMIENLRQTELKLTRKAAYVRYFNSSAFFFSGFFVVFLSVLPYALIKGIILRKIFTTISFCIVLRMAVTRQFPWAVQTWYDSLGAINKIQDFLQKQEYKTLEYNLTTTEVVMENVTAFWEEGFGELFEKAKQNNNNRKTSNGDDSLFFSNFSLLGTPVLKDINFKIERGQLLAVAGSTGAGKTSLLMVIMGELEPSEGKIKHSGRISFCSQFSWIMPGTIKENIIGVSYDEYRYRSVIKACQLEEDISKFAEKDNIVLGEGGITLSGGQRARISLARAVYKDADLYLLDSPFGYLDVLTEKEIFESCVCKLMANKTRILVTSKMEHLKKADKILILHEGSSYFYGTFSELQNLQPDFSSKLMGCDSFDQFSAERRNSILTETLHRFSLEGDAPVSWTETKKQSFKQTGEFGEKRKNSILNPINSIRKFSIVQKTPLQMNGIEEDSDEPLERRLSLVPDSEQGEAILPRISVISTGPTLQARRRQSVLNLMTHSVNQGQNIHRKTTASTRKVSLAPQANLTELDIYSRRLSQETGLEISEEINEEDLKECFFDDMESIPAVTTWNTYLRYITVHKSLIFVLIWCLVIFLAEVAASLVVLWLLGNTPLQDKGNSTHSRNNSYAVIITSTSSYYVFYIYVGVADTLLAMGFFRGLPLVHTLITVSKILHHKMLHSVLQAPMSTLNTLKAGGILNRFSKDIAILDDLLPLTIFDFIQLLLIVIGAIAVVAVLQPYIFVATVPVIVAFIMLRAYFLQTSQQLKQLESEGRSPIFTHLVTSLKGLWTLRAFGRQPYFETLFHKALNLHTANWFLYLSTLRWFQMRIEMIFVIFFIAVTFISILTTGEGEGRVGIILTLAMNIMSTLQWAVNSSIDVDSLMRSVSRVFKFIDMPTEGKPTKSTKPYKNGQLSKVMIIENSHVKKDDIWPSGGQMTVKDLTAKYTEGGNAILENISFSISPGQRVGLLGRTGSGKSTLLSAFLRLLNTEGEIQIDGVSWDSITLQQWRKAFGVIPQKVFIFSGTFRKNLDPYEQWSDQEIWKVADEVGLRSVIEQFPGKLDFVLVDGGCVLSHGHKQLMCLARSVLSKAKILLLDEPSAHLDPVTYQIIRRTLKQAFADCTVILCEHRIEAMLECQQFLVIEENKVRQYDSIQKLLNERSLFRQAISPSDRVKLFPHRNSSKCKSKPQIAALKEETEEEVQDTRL

SMILES	Emax (F508delCFTR [1]) [%]	EC50 (F508delCFTR [1]) [µM]	Maximum % activity (with co-corrector) (F508delCFTR [2])	EC50 (F508delCFTR [2]) [µM]
COc1ccc(Br)c2c1C(C(=O)NS(=O)(=O)c1cccc3ncccc13)CCC2 (centres unmarked) [Example I-50, 5-bromo-8-methoxy-N-(quinoline-5-sulfonyl)-1,2,3,4-tetrahydronaphthalene-1-carboxamide]	≥ 150	< 3	+++ (≥350)	< 3
COc1ccc(Br)c2c1[C@@H](C(=O)NS(=O)(=O)c1cccc3ccccc13)CC2 [Example I-51, (1S)-4-bromo-7-methoxy-N-(naphthalene-1-sulfonyl)-2,3-dihydro-1H-indene-1-carboxamide]	50 to 150	3 to 10	++ (≥150 and <350)	3 to 10
COc1ccc(Br)c2c1[C@H](C(=O)NS(=O)(=O)c1cccc3ccccc13)CC2 [Example I-52, (1R)-4-bromo-7-methoxy-N-(naphthalene-1-sulfonyl)-2,3-dihydro-1H-indene-1-carboxamide]	≥ 150	< 3	+++ (≥350)	< 3
CCOc1ccc(Br)c2c1C(C(=O)NS(=O)(=O)c1cccc3ccccc13)CC2 (centres unmarked) [Example I-53, 4-bromo-7-ethoxy-N-(naphthalene-1-sulfonyl)-2,3-dihydro-1H-indene-1-carboxamide]	≥ 150	< 3	+++ (≥350)	< 3
CC(C)Oc1ccc(Br)c2c1C(C(=O)NS(=O)(=O)c1cccc3ccccc13)CC2 (centres unmarked) [Example I-54]	≥ 150	3 to 10	+++ (≥350)	< 3
O=C(NS(=O)(=O)c1cccc2ccccc12)C1CCc2c(Br)ccc(OCC3CC3)c21 (centres unmarked) [Example I-55, 4-bromo-7-(cyclopropylmethoxy)-N-(naphthalene-1-sulfonyl)-2,3-dihydro-1H-indene-1-carboxamide]	≥ 150	< 3	+++ (≥350)	< 3
COc1ccc(Br)c2c1CCCC2C(=O)NS(=O)(=O)c1cccc2ncccc12 (centres unmarked) [Example I-56, 8-bromo-5-methoxy-N-(quinoline-5-sulfonyl)-1,2,3,4-tetrahydronaphthalene-1-carboxamide]	≥ 150	< 3	+++ (≥350)	< 3
COc1ccc(-c2ccc(C)cc2)c2c1CCCC2C(=O)NS(=O)(=O)c1cccc2ccccc12 (centres unmarked) [Example I-57, 5-methoxy-8-(4-methylphenyl)-N-(naphthalene-1-sulfonyl)-1,2,3,4-tetrahydronaphthalene-1-carboxamide]	≥ 150	< 3	+++ (≥350)	< 3
O=C(NS(=O)(=O)c1cccc2ccccc12)C1CCc2c(Br)ccc(OC(F)F)c21 (centres unmarked) [Example I-58, 4-bromo-7-(difluoromethoxy)-N-(naphthalene-1-sulfonyl)-2,3-dihydro-1H-indene-1-carboxamide]	≥ 150	< 3	+++ (≥350)	< 3
COc1ccc(Cl)c2c1C(C(=O)NS(=O)(=O)c1cccc3ccccc13)CC2 (centres unmarked) [Example I-59, 4-chloro-7-methoxy-N-(naphthalene-1-sulfonyl)-2,3-dihydro-1H-indene-1-carboxamide]	≥ 150	3 to 10	+++ (≥350)	< 3
CC[C@]1(C(=O)NS(=O)(=O)c2cccc3ccccc23)CCCc2cccc(Cl)c21 [Example I-64, (1S)-8-chloro-1-ethyl-N-(naphthalene-1-sulfonyl)-1,2,3,4-tetrahydronaphthalene-1-carboxamide]	≥ 150	< 3	+++ (≥350)	< 3
CC[C@@]1(C(=O)NS(=O)(=O)c2cccc3ccccc23)CCCc2cccc(Cl)c21 [Example I-65, (1R)-8-chloro-1-ethyl-N-(naphthalene-1-sulfonyl)-1,2,3,4-tetrahydronaphthalene-1-carboxamide]	≥ 150	< 3	+++ (≥350)	< 3
CCC1(C(=O)NS(=O)(=O)c2cccc3ccn(C)c23)CCc2c(Cl)cccc21 (centres unmarked) [Example I-66, 4-chloro-1-ethyl-N-(1-methyl-1H-indole-7-sulfonyl)-2,3-dihydro-1H-indene-1-carboxamide]	≥ 150	< 3	+++ (≥350)	< 3
COc1ccc(Cl)c2c1[C@@H](C(=O)NS(=O)(=O)c1cccc3ccccc13)CC2 [Example I-71, (1S)-4-chloro-7-methoxy-N-(naphthalene-1-sulfonyl)-2,3-dihydro-1H-indene-1-carboxamide]	50 to 150	3 to 10	++ (≥150 and <350)	3 to 10
COc1ccc(Cl)c2c1[C@H](C(=O)NS(=O)(=O)c1cccc3ccccc13)CC2 [Example I-72, (1R)-4-chloro-7-methoxy-N-(naphthalene-1-sulfonyl)-2,3-dihydro-1H-indene-1-carboxamide]	≥ 150	3 to 10	+++ (≥350)	< 3
CCC1(C(=O)NS(=O)(=O)c2cccc3c2ccn3C)CCc2c(Cl)cccc21 (centres unmarked) [Example I-74, 4-chloro-1-ethyl-N-(1-methyl-1H-indole-4-sulfonyl)-2,3-dihydro-1H-indene-1-carboxamide]	≥ 150	3 to 10	+++ (≥350)	< 3
COc1ccc(C2CCC2)c2c1C(C(=O)NS(=O)(=O)c1cccc3ncccc13)CC2 (centres unmarked) [Example I-77, 4-cyclobutyl-7-methoxy-N-(quinoline-5-sulfonyl)-2,3-dihydro-1H-indene-1-carboxamide]	≥ 150	3 to 10	+++ (≥350)	< 3

The next lines start with the values.

Emax (F508delCFTR [1]) [%]	EC50 (F508delCFTR [1]) [µM]	Maximum % activity (with co-corrector) (F508delCFTR [2])	EC50 (F508delCFTR [2]) [µM]	SMILES
≥ 150	< 3	+++ (≥350)	< 3	COc1ccc(C2CCC2)c2c1CCC[C@@H]2C(=O)NS(=O)(=O)c1cccc2ccccc12 [Example I-60, (1S)-8-cyclobutyl-5-methoxy-N-(naphthalene-1-sulfonyl)-1,2,3,4-tetrahydronaphthalene-1-carboxamide]
≥ 150	< 3	+++ (≥350)	< 3	COc1ccc(C2CCC2)c2c1CCC[C@H]2C(=O)NS(=O)(=O)c1cccc2ccccc12 [Example I-61, (1R)-8-cyclobutyl-5-methoxy-N-(naphthalene-1-sulfonyl)-1,2,3,4-tetrahydronaphthalene-1-carboxamide]
≥ 150	< 3	+++ (≥350)	< 3	COc1ccc(CC(C)C)c2c1CCCC2C(=O)NS(=O)(=O)c1cccc2ccccc12 (centres unmarked) [Example I-67, 5-methoxy-8-(2-methylpropyl)-N-(naphthalene-1-sulfonyl)-1,2,3,4-tetrahydronaphthalene-1-carboxamide]
≥ 150	< 3	+++ (≥350)	< 3	COc1ccc(CC(C)C)c2c1C(C(=O)NS(=O)(=O)c1cccc3ccccc13)CCC2 (centres unmarked) [Example I-68, 8-methoxy-5-(2-methylpropyl)-N-(naphthalene-1-sulfonyl)-1,2,3,4-tetrahydronaphthalene-1-carboxamide]
≥ 150	< 3	+++ (≥350)	< 3	COc1ccc(C2CCC2)c2c1C(C(=O)NS(=O)(=O)c1cccc3ccccc13)CCC2 (centres unmarked) [Example I-69, 5-cyclobutyl-8-methoxy-N-(naphthalene-1-sulfonyl)-1,2,3,4-tetrahydronaphthalene-1-carboxamide]
≥ 150	< 3	+++ (≥350)	< 3	COc1ccc(Cl)c2c1C(C(=O)NS(=O)(=O)c1cccc3ccccc13)CCC2 (centres unmarked) [Example I-70, 5-chloro-8-methoxy-N-(naphthalene-1-sulfonyl)-1,2,3,4-tetrahydronaphthalene-1-carboxamide]
≥ 150	3 to 10	+++ (≥350)	< 3	COc1ccc(OC)c2c1CCCC2C(=O)NS(=O)(=O)c1cccc2ccccc12 (centres unmarked) [Example I-73, 5,8-dimethoxy-N-(naphthalene-1-sulfonyl)-1,2,3,4-tetrahydronaphthalene-1-carboxamide]
≥ 150	< 3	+++ (≥350)	< 3	COc1ccc(C)c2c1C(C(=O)NS(=O)(=O)c1cccc3ccccc13)CC2 (centres unmarked) [Example I-75, 7-methoxy-4-methyl-N-(naphthalene-1-sulfonyl)-2,3-dihydro-1H-indene-1-carboxamide]
≥ 150	3 to 10	+++ (≥350)	< 3	COc1ccc(C2CCC2)c2c1C(C(=O)NS(=O)(=O)c1cccc3ccccc13)CC2 (centres unmarked) [Example I-76, 4-cyclobutyl-7-methoxy-N-(naphthalene-1-sulfonyl)-2,3-dihydro-1H-indene-1-carboxamide]

Reference: patent US20180244611A1, “Modulators of the Cystic Fibrosis Transmembrane Conductance Regulator Protein and Methods of Use” (AbbVie S.à.r.l., priority 2017, published 2018)
